Consider 6 molecules from US20100144788A1 (priority 2007, published 2010).

SMILES strings stand for the structures.

A short description of series [1]: Solubility of salts in water with pH of the saturated solution and identity of the precipitate.
Series [2] can be described thus: Hydrate formation when precipitated from water. The class given is physicochemical. The source says:
Crystals used in the present invention may exist as solvates, i.e. crystals wherein solvent molecules form part of the crystal structure. The solvate may be formed from water, in which case the solvates are often referred to as hydrates. Alternatively, the solvates may be formed from other solvents, such as e.g. ethanol, acetone, or ethyl acetate. The exact amount of solvate often depends on the conditions. For instance, hydrates will typically loose water as the temperature is increased or as the relative humidity is decreased.

The test system of series [3] is Spontaneously hypertensive rats (SHR). Put plainly: Spontaneously hypertensive rats, animal model of ADHD: operant task with delayed food-reward and circadian activity recording. The class given is in vivo, rat. On the procedure: Core symptoms of ADHD are attention deficit, hyperactivity and increased impulsiveness. Spontaneously hypertensive rats (SHR) were used as animal model for attention deficit hyperactivity disorder (ADHD), Wistar Kyoto rats (the root strain of SHR) served as controls [Biol. Psychiatry. 57, 1239-47, 2005]. To assess these symptoms, an operant task involving a delayed food-reward was used to measure attention- and impulsiveness-related parameters. Attention deficits were measured as increase in the number of lever presses on the wrong side. Impulsiveness was measured as lever presses and reward chamber inspections during the OFF state in test sessions without delayed reward and during the delay interval in the test sessions with delayed rewarding. Hyperactivity was monitored by circadian recording in infra-red cages.
Methods: Operant testing was performed in 20 hours sessions, each in operant behaviour cages with two levers and adjacent reward chambers on the right and left side of the lever panel. The animals had access to food only via lever presses, and fluid was freely available. Training and testing consisted of the following phases:
• (1) Both levers were continuously active (indicated by a signal light). […] The signal light on the correct side indicated the state of the lever (ON or OFF).
• (1) Like Acquisition (3) • (2) Like (1), except that after a lever press of an active lever, the reward was not presented immediately, but after a delay interval of 5 seconds.

The subject of series [4] is extracellular levels of acetylcholine. The series can be described thus: Microdialysis, extracellular acetylcholine in prefrontal cortex and ventral hippocampus of Sprague-Dawley rats (Example 2G). The class given is in vivo, rat. On the procedure: Male Sprague-Dawley rats, initially weighing 275-300 g, were used. The animals were housed under a 12-hr light/dark cycle under controlled conditions for regular in-door temperature (21±2° C.) and humidity (55±5%) with food and tap water available ad libitum.
Rats were anaesthetised with hypnorm/dormicum (2 ml/kg) and intracerebral guide cannulas (CMA/12) were stereotaxically implanted into the hippocampus, aiming to position the dialysis probe tip in the ventral hippocampus (co-ordinates: 5,6 mm posterior to bregma, lateral −5,0 mm, 7,0 mm ventral to dura or in the frontal cortex (co-ordinates: 3,2 mm anterior to bregma; lateral, 0,8 mm; 4,0 mm ventral to dura). Anchor screws and acrylic cement were used for fixation of the guide cannulas. The body temperature of the animals was monitored by rectal probe and maintained at 37° C. The rats were allowed to recover from surgery for 2 days, housed singly in cages. […]
Concentration of acetylcholine (ACh) in the dialysates was analysed by means of HPLC with electrochemical detection using a mobile phase consisting of 100 mM disodium hydrogenphosphate, 2.0 mM octane sulfonic acid, 0.5 mM tetramethyl-ammonium chloride and 0.005% MB (ESA), pH 8.0. […] The latter was detected electrochemical by using a platinum electrode (Analytical cell: ESA, model 5040). […]

Series [5] deals with T1, NET (Rattus norvegicus, UniProt Q9WTR4).
T1 construct: rat cortical synaptosome preparation; from tissue; host or cells: rat cortical synaptosomes
Put plainly: Norepinephrine (NE) reuptake inhibition, rat cortical synaptosomes, [3H]NE. The class given is biochemical. The settings on record: [3H]NE 10 nM. On the procedure: Non-specific uptake was determined in the presence of 10 μM talsupram or citalopram and the total uptake was determined in the presence of buffer. Aliquots were incubated for 15 minutes at 37° C. […] Filters were washed and counted in a Wallac MicroBeta counter.

Series [6] concerns extracellular levels of acetylcholine. The series can be described thus: Microdialysis, extracellular acetylcholine in prefrontal cortex of freely-moving Wistar rats (Example 2F). The class given is in vivo, rat. The settings on record: s.c. On the procedure:
Male Wistar rats (280-350 g; Harlan, Zeist, The Netherlands) were used for the experiments. Rats were individually housed in plastic cages (30×30×40 cm) and had ad libitum access to food and water.
Rats were anesthetized using isoflurane (2%, 400 mL/min N2O, 400 ml/min O2). Lidocain (10% m/v) was used for local anesthesia. Each animal was placed into a stereotaxic frame (Kopf instruments, USA), and home-made I-shaped probes (Hospal AN 69 membrane, 4 mm exposed surface) were inserted into the medial prefrontal cortex (mPFC) using the rat brain atlas of Paxinos and Watson (1982). Coordinates for the tip of the probe was mPFC [AP=3.4 mm, L=−0.8 mm, V=5.0 mm]. The probe was then fixed to the skull with dental cement and a srew. Flunixin (1 mg/kg s.c.) was administered as post-operative analgesic.
Experiments were carried out 24-48 hours after surgery. […] Samples were collected by an automated fraction collector (CMA 142), and stored at −80° C. until analyzed. […]
Concentrations of acetylcholine were determined by HPLC with tandem mass spectrometry (MS/MS) detection. […]
The LC/MS analyses were performed using a API 4000 MS/MS system consisting of a API 4000 MS/MS detector and a Turbo Ion Spray interface (both from Applied Biosystems, the Netherlands). […] Data were calibrated and quantitated using the Analyst™ data system (Applied Biosystem, version 1.2). […]

Series [7] deals with T2, human alpha1A-7 receptors (Homo sapiens, UniProt P35348).
T2 construct: expressed in transfected cells; host or cells: CHO cells
T2 sequence (P35348 1-466): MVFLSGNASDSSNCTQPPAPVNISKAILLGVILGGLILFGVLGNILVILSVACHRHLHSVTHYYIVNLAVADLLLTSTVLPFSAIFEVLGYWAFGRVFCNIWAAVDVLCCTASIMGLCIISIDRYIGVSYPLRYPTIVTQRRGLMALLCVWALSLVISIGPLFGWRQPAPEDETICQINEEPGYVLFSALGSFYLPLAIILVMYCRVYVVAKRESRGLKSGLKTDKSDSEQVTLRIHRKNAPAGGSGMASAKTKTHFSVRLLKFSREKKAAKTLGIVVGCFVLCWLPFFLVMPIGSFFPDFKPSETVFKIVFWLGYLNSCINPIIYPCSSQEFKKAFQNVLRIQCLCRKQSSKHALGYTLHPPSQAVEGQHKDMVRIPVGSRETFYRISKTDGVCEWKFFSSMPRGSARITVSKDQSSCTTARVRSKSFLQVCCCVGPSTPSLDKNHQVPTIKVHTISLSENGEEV
The series can be described thus: Antagonism of adrenaline evoked release of Ca2+ in CHO cells expressing human alpha1A-7 receptors (FLIPR). The class given is cell-based. The settings on record: functional assay. On the procedure:
These experiments were carried out essentially as described below. All cells were cultured in DMEM medium supplemented with 10% BCS, 4 mM L-glutamine (or 2 mM in the case of COS-7), and 100 units/ml penicillin plus 100 μg/ml streptomycin, at 37° C., in 5% CO2. Twenty-four hours prior to assays, CHO cells expressing the human alpha1A-7 receptors were seeded into 384-well black wall microtiter plates coated with poly-D-lysine. […] After excess dye was discarded, cells were washed in assay buffer and layered with a final volume equal to 45 μl/well (or 30 ul/well for antagonist assay). […] Basal fluorescence was monitored in a fluorometric imaging plate reader or FLIPR™ from Molecular Devices (Sunnyvale, Calif.) with an excitation wavelength of 488 nm and an emission range of 500 to 560 nm. Laser excitation energy was adjusted so that basal fluorescence readings were approximately 8,000 relative fluorescent units (RFU). Cells were then stimulated at room temperature with agonists diluted in assay buffer (15 μl), and RFU were measured at 1.5 second intervals over a period of 2.5 min. Maximum change in fluorescence was calculated for each well. Concentration-response curves derived from the maximum change in fluorescence were analyzed by nonlinear regression (Hill equation).

The mark [8] stands for this setting: SHR, methylphenidate 2 and 5 mg/kg i.p. intermittent, ~10 mg/kg/day chronic via drinking water.
[9] abbreviates: SHR rats, 5 and 10 mg/kg i.p., injected 30 min before testing.

The term IC50 denotes the concentration that gives 50% inhibition. The low end stands for greater potency, the high end for weaker potency.

T1 sequence (Q9WTR4 1-597): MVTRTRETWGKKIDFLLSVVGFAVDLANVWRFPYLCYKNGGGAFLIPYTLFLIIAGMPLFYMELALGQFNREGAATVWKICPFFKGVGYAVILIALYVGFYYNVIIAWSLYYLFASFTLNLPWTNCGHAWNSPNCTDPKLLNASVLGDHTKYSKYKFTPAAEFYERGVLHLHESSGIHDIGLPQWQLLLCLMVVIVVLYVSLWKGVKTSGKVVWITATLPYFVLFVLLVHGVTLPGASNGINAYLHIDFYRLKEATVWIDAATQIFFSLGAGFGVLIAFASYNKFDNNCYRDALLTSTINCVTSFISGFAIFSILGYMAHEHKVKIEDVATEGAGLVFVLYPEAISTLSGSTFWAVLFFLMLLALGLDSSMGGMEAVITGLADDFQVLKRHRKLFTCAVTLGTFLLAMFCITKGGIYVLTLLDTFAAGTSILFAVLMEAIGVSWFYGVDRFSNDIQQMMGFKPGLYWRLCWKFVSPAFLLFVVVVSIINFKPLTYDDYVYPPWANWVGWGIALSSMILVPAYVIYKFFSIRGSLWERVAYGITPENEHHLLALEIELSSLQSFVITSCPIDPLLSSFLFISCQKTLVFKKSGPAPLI

For the molecule `O=C(O)CCCC(=O)O` [Glutaric acid, 1,5-pentanedioic acid 1:1], in series [1] (pH in the saturated solution of the salt in water), the “Resulting pH” value was 4.6. The Precipitate result in series [1] (whether precipitate isolated after the solubility determination is identical to the compound dissolved, indicative of hydrate formation) is given as “=start”.
For the molecule `Br.Cc1ccc(Sc2ccccc2C2CCNCC2)cc1` [HBr, 4-(2-p-Tolylsulfanyl-phenyl)-piperidine hydrobromide], the formation of hydrates entry in series [2] is “does not form hydrates”.
As for `COC(=O)C(c1ccccc1)C1CCCCN1` (centres unmarked) [Methylphenidate, reference compound], in series [3] (setting [8]), the attention deficit result is “no reduction” and the impulsiveness entry is recorded as “no reduction”. In series [3] (chronic administration via drinking water, ~10 mg/kg/day), the “time course of activity” value is reported as “did not alter”. In addition, the “hyperactivity of SHR” value in series [3] (intermittent administration, 2 and 5 mg/kg i.p., effect lasted a few hours) is “markedly and dose-dependently aggravated”.
For the molecule `O=C(O)CCC(=O)O` [Succinic acid, 1,4-butanedioic acid, 2:1], the formation of hydrates entry in series [2] is on record as “do”.
Turning to `Cc1ccc(Sc2ccccc2C2CCNCC2)cc1` [compound I, 4-[2-(4-methylphenylsulfanyl)-phenyl]piperidine], the “extracellular level of acetylcholine” value in series [4] is “increase”. Moreover, in series [5], the IC50 was determined as 23 nM. The “extracellular level of acetylcholine” value in series [6] was “increase”. The “adrenaline evoked release of Ca2+ from intracellular stores” value in series [7] was “antagonises”. In series [3] (SHR rats, 5 and 10 mg/kg i.p.), the “acquisition of the task or general motivation of food seeking” value is “did not affect”. In series [3] (setting [9]), the attention deficits result was “reduced” and the impulsiveness result is “reduced”. In addition, the “hyperactivity - locomotor activity” value in series [3] (SHR rats, 5 and 10 mg/kg i.p., circadian activity monitoring, for 1 hour without prolonged effects) was “dose-dependently depressed”.
With `Cc1ccc(Sc2ccccc2C2CCNCC2)cc1`, the formation of hydrates entry in series [2] is reported as “do”.
